Results: the NIST ThermoML archive (doi:10.1016/j.jct.2015.09.020)

Test: mn = molality of the nth substance listed, in mol/kg
Settings: 101.3 kPa, Liquid

Cl.NCC(=O)O [glycine hydrochloride] + O
Settings	speed of sound [m/s]
278.15 K, Frequency=2 MHz, Linear variable-path acoustic interferometer, m1 = 0.0508	1430.8
278.15 K, Frequency=2 MHz, Linear variable-path acoustic interferometer, m1 = 0.0811	1433.6
278.15 K, Frequency=2 MHz, Linear variable-path acoustic interferometer, m1 = 0.1008	1435
278.15 K, Frequency=2 MHz, Linear variable-path acoustic interferometer, m1 = 0.1202	1436.2
278.15 K, Frequency=2 MHz, Linear variable-path acoustic interferometer, m1 = 0.1499	1438.3
278.15 K, Frequency=2 MHz, Linear variable-path acoustic interferometer, m1 = 0.1801	1441.1
278.15 K, Frequency=2 MHz, Linear variable-path acoustic interferometer, m1 = 0.2112	1443.2
278.15 K, Frequency=2 MHz, Linear variable-path acoustic interferometer, m1 = 0.2325	1445.3
278.15 K, Frequency=2 MHz, Linear variable-path acoustic interferometer, m1 = 0.2472	1445.9
278.15 K, Frequency=2 MHz, Linear variable-path acoustic interferometer, m1 = 0.2732	1448
278.15 K, Frequency=2 MHz, Linear variable-path acoustic interferometer, m1 = 0.2995	1449.7
278.15 K, Frequency=2 MHz, Linear variable-path acoustic interferometer, m1 = 0.3208	1451.3
278.15 K, Frequency=2 MHz, Linear variable-path acoustic interferometer, m1 = 0.3529	1454.1
288.15 K, Frequency=3 MHz, Sing-around technique in a fixed-path interferometer, m1 = 0.05	1469.8
288.15 K, Frequency=3 MHz, Sing-around technique in a fixed-path interferometer, m1 = 0.0802	1471.7
288.15 K, Frequency=3 MHz, Sing-around technique in a fixed-path interferometer, m1 = 0.1002	1473.1
288.15 K, Frequency=3 MHz, Sing-around technique in a fixed-path interferometer, m1 = 0.1216	1474.5
288.15 K, Frequency=3 MHz, Sing-around technique in a fixed-path interferometer, m1 = 0.1506	1476.6
288.15 K, Frequency=3 MHz, Sing-around technique in a fixed-path interferometer, m1 = 0.1821	1479
288.15 K, Frequency=3 MHz, Sing-around technique in a fixed-path interferometer, m1 = 0.21	1480.8
288.15 K, Frequency=3 MHz, Sing-around technique in a fixed-path interferometer, m1 = 0.2318	1482.2
288.15 K, Frequency=3 MHz, Sing-around technique in a fixed-path interferometer, m1 = 0.2508	1483.4
288.15 K, Frequency=3 MHz, Sing-around technique in a fixed-path interferometer, m1 = 0.2723	1484.8
288.15 K, Frequency=3 MHz, Sing-around technique in a fixed-path interferometer, m1 = 0.3012	1486.4
288.15 K, Frequency=3 MHz, Sing-around technique in a fixed-path interferometer, m1 = 0.3205	1488.1
288.15 K, Frequency=3 MHz, Sing-around technique in a fixed-path interferometer, m1 = 0.3534	1489.9
298.15 K, Frequency=3 MHz, Sing-around technique in a fixed-path interferometer, m1 = 0.0515	1500
298.15 K, Frequency=3 MHz, Sing-around technique in a fixed-path interferometer, m1 = 0.0839	1502
298.15 K, Frequency=3 MHz, Sing-around technique in a fixed-path interferometer, m1 = 0.1035	1503.3
298.15 K, Frequency=3 MHz, Sing-around technique in a fixed-path interferometer, m1 = 0.1305	1504.9
298.15 K, Frequency=3 MHz, Sing-around technique in a fixed-path interferometer, m1 = 0.1453	1505.9
298.15 K, Frequency=3 MHz, Sing-around technique in a fixed-path interferometer, m1 = 0.185	1508.2
298.15 K, Frequency=3 MHz, Sing-around technique in a fixed-path interferometer, m1 = 0.2073	1509.4
298.15 K, Frequency=3 MHz, Sing-around technique in a fixed-path interferometer, m1 = 0.2401	1511.3
298.15 K, Frequency=3 MHz, Sing-around technique in a fixed-path interferometer, m1 = 0.2727	1513.2
298.15 K, Frequency=3 MHz, Sing-around technique in a fixed-path interferometer, m1 = 0.3029	1514.9
298.15 K, Frequency=3 MHz, Sing-around technique in a fixed-path interferometer, m1 = 0.3177	1515.8
298.15 K, Frequency=3 MHz, Sing-around technique in a fixed-path interferometer, m1 = 0.3535	1517.9

Settings	mass density [kg/m3]
278.15 K, Pycnometric method, m1 = 0.0508	1002.4
278.15 K, Pycnometric method, m1 = 0.0811	1003.61
278.15 K, Pycnometric method, m1 = 0.1008	1004.87
278.15 K, Pycnometric method, m1 = 0.1202	1005.41
278.15 K, Pycnometric method, m1 = 0.1499	1006.88
278.15 K, Pycnometric method, m1 = 0.1801	1008.05
278.15 K, Pycnometric method, m1 = 0.2112	1009.37
278.15 K, Pycnometric method, m1 = 0.2325	1010.42
278.15 K, Pycnometric method, m1 = 0.2472	1011.07
278.15 K, Pycnometric method, m1 = 0.2732	1012.17
278.15 K, Pycnometric method, m1 = 0.2995	1013.21
278.15 K, Pycnometric method, m1 = 0.3208	1014.01
278.15 K, Pycnometric method, m1 = 0.3529	1015.11
288.15 K, Vibrating tube method, m1 = 0.05	1001.39
288.15 K, Vibrating tube method, m1 = 0.0802	1002.72
288.15 K, Vibrating tube method, m1 = 0.1002	1003.61
288.15 K, Vibrating tube method, m1 = 0.1216	1004.54
288.15 K, Vibrating tube method, m1 = 0.1506	1005.74
288.15 K, Vibrating tube method, m1 = 0.1821	1007.14
288.15 K, Vibrating tube method, m1 = 0.21	1008.37
288.15 K, Vibrating tube method, m1 = 0.2318	1009.27
288.15 K, Vibrating tube method, m1 = 0.2508	1010.04
288.15 K, Vibrating tube method, m1 = 0.2723	1010.95
288.15 K, Vibrating tube method, m1 = 0.3012	1012.17
288.15 K, Vibrating tube method, m1 = 0.3205	1012.97
288.15 K, Vibrating tube method, m1 = 0.3534	1014.37
298.15 K, Vibrating tube method, m1 = 0.0839	1000.75
298.15 K, Vibrating tube method, m1 = 0.1035	1001.57
298.15 K, Vibrating tube method, m1 = 0.1305	1002.87
298.15 K, Vibrating tube method, m1 = 0.1453	1003.51
298.15 K, Vibrating tube method, m1 = 0.185	1005.13
298.15 K, Vibrating tube method, m1 = 0.2073	1005.96
298.15 K, Vibrating tube method, m1 = 0.2401	1007.29
298.15 K, Vibrating tube method, m1 = 0.2727	1008.59
298.15 K, Vibrating tube method, m1 = 0.3029	1009.81
298.15 K, Vibrating tube method, m1 = 0.3177	1010.44
298.15 K, Vibrating tube method, m1 = 0.3535	1011.84
